Assay results published in patent US7763439B2, “Two-photon absorbing dipyrrometheneboron difluoride dyes and their applications” (Arctic Diagnostics Oy, priority 2001, dated 2010).

How the values were obtained:
[1] = Single pulse effect: z-response, 20% to 80% fluorescence intensity distance in dye solution; assay type: physicochemical; settings: dye solution between two microscope slides; two-photon excitation
Description: (§1) FIG. 1 is a plot of two-photon excitations vs. illumination intensity. At low illumination intensities (A) excitation follows a quadratic dependence of the illumination intensity. In order to maximise the two-photon excited fluorescence a dye should be excited close to saturation level (B). At saturation level (C) almost all of the dye molecules become excited. FIG. 2a present alkyl substituted dipyrrometheneboron difluoride dyes described in examples 1-3 as compounds 1-3. FIGS. 2b and 2c present heteroaryl substituted dipyrrometheneboron difluoride dyes described in examples 4-9 as compounds 4-9. X^+ is a cationic counterion. FIG. 2d presents phenyl substituted dipyrrometheneboron difluoride dyes described in examples 10 and 11 as compounds 10 and 11. X^+ is a cationic counterion. FIGS. 2e and 2f present phenylethenyl substituted dipyrromethene-boron difluoride dyes described in examples 12 and 13 as compounds 12 and 13. X^+ is a cationic counterion. FIGS. 2g and 2h present thienyl substituted dipyrrometheneboron difluoride dyes with amino-, arylamino-, maleimide- and isothiocyanate reactive groups described in examples 14-17 as compounds 14-17. X^+ is a cationic counterion. FIG. 3 presents a linker compound 18 that is used to increase solubility of the dyes in aqueous solutions. X^+ is a cationic counter-ion. FIG. 4 is a plot of two-photon fluorescence signal vs. analyte (AFP) concentration in an immunoassay based on two-photon fluorescence as described in example 21. The AFP concentration 0 ng/ml is presented as a concentration of 0.1 ng/ml because of the logarithmic scale used in FIG. 4. FIG. 5 is an optical scheme of the instrument used in two-photon fluorescence measurements. A passively Q-switched Nd:YAG microchip laser 1 is used as an illumination source for two-photon excited fluorescence. The wavelength of the laser is 1064 nm, the pulse duration is 1 ns and the repetition rate is 20 kHz. The naturally diverging laser light beam is directed with a dichroich mirror 2 through an optical scanner unit 3 to the entrance aperture of the objective lens 4. The illumination at the entrance aperture is gaussian filling about 70% of the full aperture. The objective lens then focuses the illumination light into a special cuvette 5 that has a thin optical bottom (thickness 0.2 mm). The average optical output power reaching the sample is 50 mW. The size of the focal volume is about 1 femtoliter. The two-photon excited fluorescence signal in the range 540-700 nm is collected from the full aperture of the objective lens 4 and directed through the dichroich mirror 2 and the band pass filter 6 to the photomultiplier tube 7. In case of particle measurements, both the two-photon excited fluorescence light and the microparticle back-scattered (reflected) laser light are measured. The dichroich mirror 2 and the 2% beam splitting window 8 deflect the back-scattered light to the pinhole 9 making the detection of the scattering signal confocal. The detector for the scattering signal is a near infrared GaAs pin photodiode 10. The particles are continuously tracked by using a three-dimensional beam scanner 3. The xy-scanner is optomechanical and is positioned as close to the entrance aperture of the objective lens as possible. […] Optical pressure caused by the illuminating laser beam traps the particle and guides it through the centre of laser beam focus. The fluorescence signal is measured while the particle is in focus i.e. the back scattering signal exceeds the preset threshold. In addition to xy-scanning a further z-scanning movement is performed by moving the objective slowly in the axial direction. The amplitude of this movement is 150 μm and the movement is not stopped for particle measurement. Despite of slow z-scanning the particle remains in the focus on basis of optical trapping forces.
The direct measurement of quenching by single pulse effect is difficult. […]

[2] = Two-photon fluorescence yields of dyes in solution, laser with high two-photon excitation efficiency; assay type: physicochemical; settings: 100 nM dye in ethanol (R-PE in PBS pH 7.4); 1064 nm Nd:YAG microchip laser; normalised to Rhodamine B (100)
Description: as §1
The two-photon fluorescence yields were measured using experimental apparatus shown schematically in FIG. 5. […]

4,4-difluoro-1,3,5,7-tetramethyl-6-carboxyethyl-4-bora-3a,4a-diaza-s-indacene-2-propionic acid succinimidylester [Compound 3]
20% to 80% fluorescence intensity distance values [1]: 11.5 a.u. | Normalised two-photon fluorescence yield [2]: 18 a.u.

O=C(O)CCC1=[N+]2C(=Cc3c(-c4ccccc4)cc(-c4ccccc4)n3[B-]2(F)F)C=C1 [BODIPY 530/550]
20% to 80% fluorescence intensity distance values [1]: 12.2 a.u. | Normalised two-photon fluorescence yield [2]: 66 a.u.

O=C(O)CCC1=[N+]2C(=Cc3ccc(-c4cccs4)n3[B-]2(F)F)C=C1 [BODIPY 558/568]
20% to 80% fluorescence intensity distance values [1]: 13.7 a.u. | Normalised two-photon fluorescence yield [2]: 101 a.u.

CCN(CC)c1ccc2c(-c3ccccc3C(=O)O)c3ccc(=[N+](CC)CC)cc-3oc2c1.[Cl-] [Rhodamine B]
20% to 80% fluorescence intensity distance values [1]: 16.5 a.u. | Normalised two-photon fluorescence yield [2]: 100 a.u.

Glu-Tau-succinimide derivative of 4,4-difluoro-5-(2-thienyl)-1,3-dimethyl-4-bora-3a,4a-diaza-s-indacene-2-propionic acid [Compound 8]
20% to 80% fluorescence intensity distance values [1]: 12.6 a.u. | Normalised two-photon fluorescence yield [2]: 219 a.u.

R-phycoerythrin [R-PE]
20% to 80% fluorescence intensity distance values [1]: 21.5 a.u. | Normalised two-photon fluorescence yield [2]: 618 a.u.
